Measured values taken from US6787315B2, “Methods for identifying ligand binding sites in a biomolecule” (priority 2001, dated 2004).

Key:
[1] = test system: modified 16S RNA (5′-PS-G1491; 3′-phosphorothioate at G1491, C12O6 PEG mass tag); assay: ESI-FT-ICR MS ligand binding to 27-mer 16S RNA modified at G1491; design: species or system E. coli
Protocol: (§1) The following examples illustrate preferred embodiments of the present invention using mass spectrometry. Experiments were performed using a 7.0 Tesla Fourier transform ion cyclotron resonance (FT-ICR) mass spectrometer with an electrospray ionization source operating in the negative mode. A −3000 V difference was employed between the spray tip and the inlet capillary to generate the electrospray. Samples were introduced at a flow rate of 1.5 uL/min using a Harvard syringe pump and a 50 uL glass syringe. The desolvation of the electrospray droplets was aided by a flow of countercurrent gas at 1 L/min. Ions were accumulated for 1.0 sec in an intermediate hexapole ion storage region at 1.0×10^−5 mbar. Following transfer to the FT-ICR analysis cell, the image current was measured over a mass range of 500-4000 m/z. Typically, a total of 32 transients containing 512 kbytes were summed prior to Fourier transformation. The m/z values were calibrated on the signal from the [M-5H^+]^5− charge state of the free RNA at 1726.509.
An aqueous solution containing 100 mM ammonium acetate buffer (pH 7.0), 33% isopropyl alcohol, gentamicin (1 μM), 16S RNA (5 μM) and a modified 16S RNA (5.5 μM) was prepared. Modified 27-mer 16S RNA contained a 3′-phosphorothioate residue at position G1491 at the position of a G-C base pair (E. coli numbering system) and a C12O6 PEG mass tag off the 5′-hydroxyl group. Mass spectra were obtained using the standard protocol described above. The resulting mass spectra contained identifiable peaks corresponding to free 16S RNA (m/z 1726.5), free modified 16S RNA(5′-PS-G1491; m/z 1779.3), 16S complexed with the three forms of gentamicin present in the sample (16S+genta; m/z 1816-1825), and 16S(5′-PS-G1491) complexed with the three forms of gentamicin (5′-PS-G1491+genta; m/z 1869-1875). The peaks from the complexes formed from the lowest mass form of gentamicin were integrated and ion abundances determined. Fractions of 16S+genta and 5′-PS-G1491+genta complexes were determined to be 0.127 and 0.140±0.01% for the free 16S RNA and 5′-PS-G1491 RNA, respectively.
An aqueous solution containing 100 mM ammonium acetate buffer (pH 7.0), 33% isopropyl alcohol, ribostamycin (1 μM), 16S RNA (5 μM) and a modified 16S RNA (5.5 uM) was prepared. Modified 27 mer 16S RNA contained a 3′-phosphorothioate residue at position G1491 at the position of a G-C base pair (E. coli numbering system) and a C12O6 PEG mass tag off the 5′-hydroxyl group. […] The peaks from the complexes formed between ribostamycin and the RNA were integrated and ion abundances determined. Fractions of 16S+ribost and 5′-PS-G1491+ribost complexes were determined to be 0.105 and 0.100±0.005% for the free 16S RNA and 5′-PS-G1491 RNA, respectively.

[2] = test system: 16S RNA (27-mer RNA model of the prokaryotic A-site 16S RNA); assay: ESI-FT-ICR MS ligand binding to unmodified 27-mer 16S RNA; design: species or system E. coli
Protocol: as §1
An aqueous solution containing 100 mM ammonium acetate buffer (pH 7.0), 33% isopropyl alcohol, gentamicin (2 μM, present in three forms), 16S RNA (2.5 μM) and a modified 16S RNA (2.5 μM) was prepared. Modified 27-mer 16S RNA contained a 5-iodouridine residue at position 13 in the UUCG tetraloop (See FIG. 1). The resulting mass spectra (see FIG. 3, upper spectrum) contained identifiable peaks corresponding to free 16S RNA (m/z 1726.5), free modified 16S RNA(5IUtetra; m/z 1750.7), 16S complexed with the three forms of gentamicin present in the sample (16S+genta; m/z 1816-1825), and 16S(5IUtetra) complexed with the three forms of gentamicin (5IUtetra+genta; m/z 1841-1849). The peaks were integrated and ion abundances determined. Fractions of 16S+genta and 5IUtetra+genta complexes were determined to be 70.4% and 68.2±1% for the free 16S RNA and 5IUtetraRNA, respectively.
An aqueous solution containing 100 mM ammonium acetate buffer (pH 7.0), 33% isopropyl alcohol, gentamicin (2 μM), 16S RNA (2.5 μM) and a modified 16S RNA (2.5 μM) was prepared. Modified 27-mer 16S RNA contained a 5-iodouridine residue at position U1406 at the position of a U-U mismatch base pair (E. coli numbering system). The resulting mass spectra (see FIG. 3, lower spectrum) contained identifiable peaks corresponding to free 16S RNA (m/z 1726.5), free modified 16S RNA(5IU1406; m/z 1750.7), 16S complexed with the three forms of gentamicin present in the sample (16S+genta; m/z 1816-1825), and 16S(5IU1406) complexed with the three forms of gentamicin (5IU1406+genta; m/z 1841-1849). The peaks were integrated and ion abundances determined. Fractions of 16S+genta and 5IU1406+genta complexes were determined to be 66.8% and 28.1±1% for the free 16S RNA and 5IU1406 RNA, respectively.
An aqueous solution containing 50 mM ammonium acetate buffer (pH 7.0), 33% isopropyl alcohol, ribostamycin (2.5 μM), 16S RNA (2.5 μM) and a modified 16S RNA (2.5 μM) was prepared. […] The resulting mass spectra (see FIG. 4) contained identifiable peaks corresponding to free 16S RNA (m/z 1726.5), free modified 16S RNA(5IU 1495; m/z 1821.4), 16S complexed with ribostamycin present in the sample (16S+ribost; m/z 1818.6), and 16S(5IU1495) complexed with ribostamycin (5IU1495+ribost; m/z 1912.3). The peaks were integrated and ion abundances determined. Fractions of 16S+ribost and 5IU1495+ribost complexes were determined to be 67.6% and 29.9±1% for the free 16S RNA and 5IU1495 RNA, respectively.
An aqueous solution containing 100 mM ammonium acetate buffer (pH 7.0), 33% isopropyl alcohol, gentamicin (1 μM), 16S RNA (5 μM) and a modified 16S RNA (5.5 μM) was prepared. Modified 27-mer 16S RNA contained a 3′-phosphorothioate residue at position G1491 at the position of a G-C base pair (E. coli numbering system) and a C12O6 PEG mass tag off the 5′-hydroxyl group. Mass spectra were obtained using the standard protocol described above. […]

[3] = Example 5: ribostamycin 1 μM, 16S RNA 5 μM with 5′-PS-G1491 RNA 5.5 uM, 100 mM ammonium acetate pH 7.0, 33% isopropyl alcohol
[4] = Example 4: gentamicin 1 μM (lowest mass form integrated), 16S RNA 5 μM with 5′-PS-G1491 RNA 5.5 μM, 100 mM ammonium acetate pH 7.0, 33% isopropyl alcohol

Molecule | Amount of 5′-PS-G1491+ribost as % of the amount of 16S+ribost ([1]; Example 5: ribostamycin 1 μM) [%] | Fraction of 5′-PS-G1491+ribost complex [1, 3] [%] | Fraction of 16S+ribost complex ([2]; Example 3: ribostamycin 2.5 μM, 16S RNA 2.5 μM with 5IU1495 RNA 2.5 μM, 50 mM ammonium acetate pH 7.0, 33% isopropyl alcohol) [%] | Fraction of 16S+ribost complex [2, 3] [%] | Fraction of 16S+ribost complex ([2]; Example 7: ribostamycin 1 μM, 16S RNA 5 μM with 5′-PS-A1492 RNA 5.5 μM, 100 mM ammonium acetate pH 7.0, 33% isopropyl alcohol) [%] | Amount of 5′-PS-G1491+genta as % of the amount of 16S+genta ([1]; Example 4: gentamicin 1 μM) [%] | Fraction of 5′-PS-G1491+genta complex [1, 4] | Fraction of 16S+genta complex ([2]; Example 1: gentamicin 2 μM (three forms), 16S RNA 2.5 μM with 5IUtetra RNA 2.5 μM, 100 mM ammonium acetate pH 7.0, 33% isopropyl alcohol) [%] | Fraction of 16S+genta complex ([2]; Example 2: gentamicin 2 μM, 16S RNA 2.5 μM with 5IU1406 RNA 2.5 μM, 100 mM ammonium acetate pH 7.0, 33% isopropyl alcohol) [%] | Fraction of 16S+genta complex [2, 4] [%] | Fraction of 16S+genta complex ([2]; Example 6: gentamicin 1 μM (lowest mass form integrated), 16S RNA 5 μM with 5′-PS-A1492 RNA 5.5 μM, 100 mM ammonium acetate pH 7.0, 33% isopropyl alcohol) [%]
NC[C@H]1O[C@H](O[C@H]2[C@H](O[C@@H]3O[C@H](CO)[C@@H](O)[C@H]3O)[C@@H](O)[C@H](N)C[C@@H]2N)[C@H](N)[C@@H](O)[C@@H]1O [ribostamycin] | 94 | 0.100±0.005 | 67.6 | 0.105 | 0.101 | – | – | – | – | – | –
gentamicin | – | – | – | – | – | 110 | 0.140±0.01 fraction (unitless) | 70.4 | 66.8 | 0.127 | 0.121
